In ChEMBL document CHEMBL6153040, “Discovery of the salicylaldehyde-based compound DDO-02267 as a lysine-targeting covalent inhibitor of ALKBH5” (Eur J Med Chem, 2025):
Active and inactive are the calls of the source. No cut-off for these calls is given here.

Experiments:
[1] = test system: MOLM-13; assay: Induction of apoptosis in human MOLM-13 cells assessed as necrotic cells at 40 uM incubated for 72 hrs by Annexin V FITC/PI staining based flow cytometry analysis (reference value: 1.75 %); assay type: functional
[2] = molecular target: T1, Alpha-ketoglutarate-dependent dioxygenase alkB homolog 3 (Homo sapiens, UniProt Q96Q83); assay: Inhibition of ALKBH3 (unknown origin) by restriction enzyme digestion method
T1 sequence (Q96Q83 whole entry): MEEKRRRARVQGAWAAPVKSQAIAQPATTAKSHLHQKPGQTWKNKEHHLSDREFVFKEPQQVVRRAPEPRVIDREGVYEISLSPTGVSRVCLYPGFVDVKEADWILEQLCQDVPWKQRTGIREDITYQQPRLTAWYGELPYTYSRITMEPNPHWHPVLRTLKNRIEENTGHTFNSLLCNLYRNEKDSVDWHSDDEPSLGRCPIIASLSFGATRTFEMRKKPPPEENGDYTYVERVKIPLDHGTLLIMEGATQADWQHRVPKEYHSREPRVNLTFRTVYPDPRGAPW

[3] = molecular target: Alpha-ketoglutarate-dependent dioxygenase FTO (Homo sapiens, UniProt Q9C0B1); assay: Induction of thermal stabilization of FTO (32 to 505 residues) (unknown origin) extracted from Escherichia coli BL21 (DE3) cells assessed as change in melting temperature by thermal shift assay
Alpha-ketoglutarate-dependent dioxygenase FTO, sequence (Q9C0B1 whole entry, looked up, the tested form may be a part): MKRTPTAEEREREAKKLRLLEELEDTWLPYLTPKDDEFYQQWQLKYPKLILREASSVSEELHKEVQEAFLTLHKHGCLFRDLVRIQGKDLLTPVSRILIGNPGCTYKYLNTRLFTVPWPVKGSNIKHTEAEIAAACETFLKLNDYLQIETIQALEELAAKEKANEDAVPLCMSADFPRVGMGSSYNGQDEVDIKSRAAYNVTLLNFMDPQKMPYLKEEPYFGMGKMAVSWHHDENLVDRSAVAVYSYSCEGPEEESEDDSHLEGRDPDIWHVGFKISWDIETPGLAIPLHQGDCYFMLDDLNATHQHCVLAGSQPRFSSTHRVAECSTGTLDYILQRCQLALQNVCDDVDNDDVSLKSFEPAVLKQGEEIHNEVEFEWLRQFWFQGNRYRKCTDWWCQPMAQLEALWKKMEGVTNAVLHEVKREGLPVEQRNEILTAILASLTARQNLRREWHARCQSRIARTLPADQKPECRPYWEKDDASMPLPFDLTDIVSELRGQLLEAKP

[4] = molecular target: T2, RNA demethylase ALKBH5 (Homo sapiens, UniProt Q6P6C2); assay: Inhibition of ALKBH5 (66 to 292 residues) (unknown origin) extracted from Escherichia coli BL21 (DE3) cells using m6A ssDNA as substrate measured after 300 mins by fluorescence polarization assay
Target sequence in this assay (Q6P6C2 whole entry, the tested form may be a part): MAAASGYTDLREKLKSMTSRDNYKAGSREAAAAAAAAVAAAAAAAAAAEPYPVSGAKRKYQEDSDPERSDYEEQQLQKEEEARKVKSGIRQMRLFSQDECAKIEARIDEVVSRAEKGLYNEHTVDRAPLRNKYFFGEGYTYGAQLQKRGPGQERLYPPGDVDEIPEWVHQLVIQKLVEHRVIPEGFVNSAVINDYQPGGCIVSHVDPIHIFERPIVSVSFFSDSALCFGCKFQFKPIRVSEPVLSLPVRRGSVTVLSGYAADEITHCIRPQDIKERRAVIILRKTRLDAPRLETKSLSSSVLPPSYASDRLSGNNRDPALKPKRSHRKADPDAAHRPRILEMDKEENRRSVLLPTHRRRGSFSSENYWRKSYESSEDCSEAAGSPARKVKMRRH

[5] = Selectivity ratio of IC50 for ALKBH3 (unknown origin) to IC50 for ALKBH5 (66 to 292 residues) (unknown origin) extracted from Escherichia coli BL21 (DE3) cells by fluorescence polarization assay
[6] = molecular target: T2, RNA demethylase ALKBH5; assay: Time-dependent inhibition of ALKBH5 (66 to 292 residues) (unknown origin) demethylation activity extracted from Escherichia coli BL21 (DE3) cells using m6A ssDNA as substrate at 1 to 10 uM by TBE-PAGE based restriction enzyme digestion assay; details: dose 1-10 µM, time 0.5-2 hrs
Target sequence in this assay (Q6P6C2 2-394 limits assumed): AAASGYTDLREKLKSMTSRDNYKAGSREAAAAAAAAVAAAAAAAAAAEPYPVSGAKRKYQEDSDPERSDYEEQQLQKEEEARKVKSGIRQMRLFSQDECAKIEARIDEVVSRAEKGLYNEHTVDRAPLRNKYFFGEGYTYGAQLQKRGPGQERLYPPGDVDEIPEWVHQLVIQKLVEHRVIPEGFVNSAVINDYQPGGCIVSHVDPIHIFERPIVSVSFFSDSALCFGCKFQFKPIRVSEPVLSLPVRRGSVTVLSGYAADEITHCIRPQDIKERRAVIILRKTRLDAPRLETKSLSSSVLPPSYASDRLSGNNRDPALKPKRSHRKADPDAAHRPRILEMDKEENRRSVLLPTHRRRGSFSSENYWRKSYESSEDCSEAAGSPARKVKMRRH

[7] = test system: MOLM-13; assay: Induction of apoptosis in human MOLM-13 cells assessed as late apoptotic cells at 40 uM incubated for 72 hrs by Annexin V FITC/PI staining based flow cytometry analysis (reference value: 4.28 %); assay type: functional
[8] = molecular target: T2, RNA demethylase ALKBH5; assay: Inhibition of ALKBH5 in human MV4-11 cells assessed as increase in m6A methylation levels by dot blot assay; assay type: cell-based
Target sequence in this assay (Q6P6C2 2-394 limits assumed): as above

[9] = test system: MOLM-13; assay: Induction of apoptosis in human MOLM-13 cells assessed as late apoptotic cells at 80 uM incubated for 72 hrs by Annexin V FITC/PI staining based flow cytometry analysis (reference value: 4.28 %); assay type: functional

Molecule `O=Cc1cc(S(=O)(=O)NC(=O)c2cc(C(=O)O)ccn2)c2ccccc2c1O` has an Activity [1] of 2.03%, an IC50 [2] of 75.4 µM and a ΔTm [3] of less than 1 °C. The IC50 [4] was 0.2 µM, the Ratio IC50 [5] was 20 and the TDI [6] was “Active”. For the same molecule, the Activity [7] was 4.62%, the inhibition [8] was “Active” and the Activity [9] was 12%.
